Data from US20110218190A1, “THERAPEUTIC USES OF AMPA RECEPTOR MODULATORS FOR TREATMENT OF MOTOR DYSFUNCTION” (THE REGENTS OF THE UNIVERSITY OF CALIFORNIA, priority 2008, published 2011).

Experiments:
[1] = system: hypoglossal (XII) nerve discharge, neonatal rat medullary slice preparation; assay: Integrated hypoglossal (XII) nerve recordings in the in vitro neonatal rat medullary slice preparation; settings: for ∫XII nerve discharge amplitude: longer-term (>2 hours) bath application; for long-lasting potentiation of ∫XII nerve amplitude: 1-12 hours after
Procedure: (§1) Experiments were performed on medullary slice preparations from 0-4 day-old neonatal rats that retain functional respiratory networks. Details of the preparation have been previously described. See Funk et al. (1993) J Neurophysiol 70:1497-1515. Briefly, neonatal rats were anesthetized with isoflurane, decerebrated, and the neuraxis isolated by dissection in artificial cerebrospinal fluid (ACSF) [(in mM) 128 NaCl, 3.0 KCl, 1.5 CaCl2, 1.0 mgSO4, 21 NaHCO3, 0.5 Na2HPO4, and 30 D-glucose] equilibrated with 95% 02-5% CO2 at 27-28° C. The neuraxis was sectioned with a vibratome in the transverse plane starting from the rostral medulla to within 150 μm nucleus ambiguous (Smith, J. C. et al., (1991) Science 254(5032):726-729. A single, 700 μm thick transverse slice was then cut, transferred to a 1.5 ml recording chamber and held in place by stainless steel harp. The slice was continuously superfused (≧3 ml/min) by ACSF with extracellular K^+ concentration raised to 9 mM to maintain rhythmic output.
Respiratory motor output was recorded from cut ends of XII nerve roots rectified, filtered and integrated. Peak amplitude was obtained from signals of XII nerve discharge. The activity in individual XII motoneurons was measured via whole-cell voltage-clamp techniques.
Cyclothiazide, CX546, and aniracetam were introduced by bath application to determine the effects of cyclothiazide, CX546, and aniracetam on respiratory activity. Stable respiratory activity was recorded for at least 30 minutes preceding drug application. After removal of the drug, recordings continued for over 12 hours.

[2] = system: obstructive sleep apnea; assay: Treatment of a patient having obstructive sleep apnea; type: in vivo; settings: about 0.1 to 100 mg/kg body weight
Source text: A patient is diagnosed as having obstructive sleep apnea. This diagnosis is confirmed by the presence of obstructive sleep apnea symptoms, including daytime sleepiness, unintentional sleep episodes, unrefreshing sleep, fatigue, or insomnia; awakening with breath holding, gasping, or choking; reports by a bed partner of loud snoring, breathing interruptions, or both in the patient's sleep; sleep study monitoring that documents >5 episodes of hypopnea and apnea per hour. The patient is administered a pharmaceutical formulation of benzothiadiazide. Benzothiadiazide is administered to the patient orally or intravenously at a dosage of about 0.1 to 100 mg benzothiadiazide/kg body weight as determined by the attending physician. The patient is monitored for reduction or inhibition of obstructive sleep apnea and associated symptoms. […] Cyclothiazide is administered to the patient intravenously at a dosage of about 0.1 to 100 mg cyclothiazide/kg body weight as determined by the attending physician. The patient is monitored for reduction or inhibition of obstructive sleep apnea and associated symptoms. […] Aniracetam is administered to the patient intravenously at a dosage of about 0.1 to 100 mg aniracetam/kg body weight as determined by the attending physician. The patient is monitored for reduction or inhibition of obstructive sleep apnea and associated symptoms.

[3] = system: snoring; assay: Treatment of a patient having snoring; type: in vivo; settings: about 0.1 to 100 mg/kg body weight
Procedure: A patient is diagnosed as having snoring. This diagnosis is confirmed by the presence of snoring sounds made by the patient during sleep or conditions associated with snoring.
(§2) The patient is administered a pharmaceutical formulation of an AMPA receptor modulator. The AMPA receptor modulator is administered to the patient intravenously or orally at a dosage of about 0.1 to 100 mg AMPA receptor modulator/kg body weight as determined by the attending physician. The patient is monitored for reduction or inhibition of snoring and associated symptoms.
as §2, with “ampakine.” for “AMPA receptor modulator.”, “ampakine” for “AMPA receptor modulator”, “ampakine/kg” for “AMPA receptor modulator/kg”
as §2, with “CX546. CX546” for “an AMPA receptor modulator. The AMPA receptor modulator”, “CX546/kg” for “AMPA receptor modulator/kg”
as §2, with “aniracetam. Aniracetam” for “an AMPA receptor modulator. The AMPA receptor modulator”, “aniracetam/kg” for “AMPA receptor modulator/kg”
as §2, with “benzothiadiazide. Benzothiadiazide” for “an AMPA receptor modulator. The AMPA receptor modulator”, “benzothiadiazide/kg” for “AMPA receptor modulator/kg”
The patient is administered a pharmaceutical formulation of cyclothiazide. Cyclothiazide is administered to the patient intravenously at a dosage of about 0.1 to 100 mg cyclothiazide/kg body weight as determined by the attending physician. […]

[4] = system: XII motoneurons; assay: Whole-cell voltage-clamp of XII motoneurons in the medullary slice; type: cell-based, rat; settings: 90 μM for 15 minutes
Procedure: as §1
XII motoneurons were selected according to a hierarchy of criteria. Selection criteria for respiratory motoneurons are described by Funk et al. (1993) J Neurophysiol 70:1497-1515. […]
Respiratory motor output was recorded from cut ends of XII nerve roots rectified, filtered and integrated. […] The activity in individual XII motoneurons was measured via whole-cell voltage-clamp techniques.

[5] = system: genioglossus (GG) muscle activity in anesthetized freely breathing rats; assay: Genioglossus EMG and respiratory rate in anesthetized freely breathing rats; type: in vivo, Sprague-Dawley rats
Procedure: Anesthetized freely breathing rats provide a live animal model for determining effects of AMPA receptor modulators on genioglossus (GG) muscle activity.
Adult Sprague-Dawley rats (˜300 g) were anaesthetized with ketamine (100 mg kg^−1) and xylazine (10 mg kg^−1) injected intraperitoneally. 1-1.5 vol % isoflurane in O2 was inhaled during the experimental stage to provide for stable recordings and continued anesthesia. To measure GG electromyographic activity (EMG), stainless steel wire electrodes were sutured into the muscle. The raw GG EMG signal was rectified filtered and integrated.
Respiratory frequency and tidal volume were measured via pressure transducer attached to the rostral end of a polyethylene cannula that was inserted into the trachea of the anesthetized rat. The animal was freely breathing without the use of any ventilator or other method of respiratory support. These methods were taken in part from those reported in Tan, W., et al. (2008) Nat. Neurosci. 11(5):538-40 and Janczewski, W. A. and Feldman, J. L. (2006) J. Physiol. 570(Pt 2):407-20, incorporated by reference in their entirety.

[6] = short-duration (1 hour) application, 90 μM, FIG. 2
[7] = injection into XII motor nucleus (1 μL, 25 mM), 30 minutes post-injection, FIG. 7
[8] = local application to the IVth ventricle, FIG. 8A
[9] = micropipette injection into hypoglossal (XII) motor nucleus, 8 minutes after, FIG. 6

## COc1ccc(C(=O)N2CCCC2=O)cc1 [aniracetam]
[1]; 700 μM, FIG. 5B
  ∫XII nerve discharge amplitude: induces a persistent potentiation of ∫XII nerve discharge amplitude
[2]
  symptoms of obstructive sleep apnea: reduces the symptoms of obstructive sleep apnea
[3]
  snoring: reduces snoring

## NS(=O)(=O)c1cc2c(cc1Cl)NC(C1CC3C=CC1C3)NS2(=O)=O (centres unmarked) [cyclothiazide]
[1]; 1-hour bath application, 90 μM
  effect on respiratory rate (frequency) in slice: minor effects on respiratory rate (frequency)
[1]; 1-hour bath application, 90 μM, FIG. 1A
  potentiation of hypoglossal (∫XII) nerve discharge amplitude: 2 fold
[1]; 1 hour following a 1 hour application of 3, 9, 30, or 90 μM, FIG. 3
  dose-response of normalized ∫XII nerve amplitude: ∫XII nerve amplitude increases as a function of cyclothiazide concentration
[1]; after 1-hour bath application, 90 μM, drug removed
  persistence of potentiation of ∫XII nerve discharge amplitude: > 12 h
[1]; [6]
  long-lasting potentiation of ∫XII nerve amplitude: causes long-lasting potentiation of ∫XII nerve amplitude
[1]; short-duration (1 hour) application, 90 μM, group data 1-12 hours after, FIG. 2
  increase of ∫XII nerve output: 200-300%
[4]; 1 hour post-treatment, FIG. 4A
  XII motoneuron drive currents: potentiates endogenously generated XII motoneuron drive currents
[4]; control vs 1 hour post-treatment, FIG. 4B
  XII motoneuron charge transfer and ∫XII nerve peak amplitude: induces XII motoneuron charge transfer and increase of ∫XII nerve amplitude
[5]; [7]
  average increase of ∫GG activity relative to control: 300%
  peak increase of ∫GG activity relative to control: 600%
[5]; [8]
  average increase of ∫GG activity compared to control: 50%
  peak increase of ∫GG activity compared to control: 150%
[5]; local application to the IVth ventricle, FIG. 8B
  respiratory rate: without affecting respiratory rate
[5]; local application to the IVth ventricle, until the end of the experiment
  duration of elevation of ∫GG activity: ~90 min
[5]; [9]
  respiratory frequency: does not affect respiratory frequency
  ∫GG activity: induces an increase in ∫GG activity
[2]
  symptoms of obstructive sleep apnea: reduces the symptoms of obstructive sleep apnea
[3]
  snoring: reduces snoring

## O=C(c1ccc2c(c1)OCCO2)N1CCCCC1 [CX546]
[1]; 1-hour bath application, 90 μM
  effect on respiratory rate (frequency) in slice: increase in ∫XII nerve discharge and respiration rate that subsides over time with drug removal
[1]; 1-hour bath application, 90 μM, FIG. 1B
  effect on ∫XII nerve discharge: induces an increase in ∫XII nerve discharge and respiration rate that subsides over time with drug removal
[1]; 20 μM, FIG. 5A
  ∫XII nerve discharge amplitude: induces a persistent potentiation of ∫XII nerve discharge amplitude
[1]; [6]
  long-lasting potentiation of ∫XII nerve amplitude: but not CX546 causes long-lasting potentiation
[5]; intravenous injection into femoral vein, 130 μg/kg, FIG. 9A
  average increase of ∫GG activity compared to control: 15%
[5]; intravenous injection, 130 μg/kg, FIG. 9B
  respiratory rate: no long term changes in respiratory rate
[5]; intravenous injection, 130 μg/kg, no diminution of amplitude
  duration genioglossus muscle activity remained elevated: more than 2 hours
[3]
  snoring: reduces snoring
